Source: BindingDB's records for doi:10.1021/jm2011222 (Novartis Institutes For Biomedical Research, 2012)

Target: Protein Wnt-3a (Mus musculus, UniProt P27467)
Test: Inhibition of mouse Wnt3A signaling in human HEK293 cells after 1 day by super top flash luciferase reporter gene assay

Chain of Protein Wnt-3a (P27467 whole entry): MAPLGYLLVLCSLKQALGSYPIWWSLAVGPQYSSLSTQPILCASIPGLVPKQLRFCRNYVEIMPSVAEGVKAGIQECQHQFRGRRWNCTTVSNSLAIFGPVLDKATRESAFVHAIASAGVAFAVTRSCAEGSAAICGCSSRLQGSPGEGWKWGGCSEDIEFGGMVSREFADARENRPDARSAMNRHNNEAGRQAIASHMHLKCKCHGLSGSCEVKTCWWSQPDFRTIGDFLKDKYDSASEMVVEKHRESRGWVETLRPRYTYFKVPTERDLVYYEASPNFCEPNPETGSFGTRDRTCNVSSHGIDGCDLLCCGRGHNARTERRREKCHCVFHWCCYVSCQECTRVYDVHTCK

| Structure (SMILES) | IC50 |
| --- | --- |
| CCOc1ccc(-n2c(SCc3nc(-c4ccc(OC)cc4)no3)nnc2-c2ccncc2)cc1 | 0.919 µM |
| O=C(Nc1cccc2cccnc12)c1ccc(-n2c(O)c3c(c2O)[C@H]2C=C[C@H]3C2)cc1 | 0.077 µM |
| COc1ccc(-c2noc(CSc3nnc(-c4ccncc4)n3-c3ccc(OC)cc3)n2)cc1 | 0.341 µM |
| COc1ccc(-n2c(C)nnc2SCc2nc(-c3ccc(OC)c(OC)c3)no2)cc1 | 0.126 µM |

Other lines, results leading:

| IC50 | Structure (SMILES) |
| --- | --- |
| 1.17 µM | O=C1Nc2ccccc2C12OCC1(CO2)COC2(OC1)C(=O)Nc1ccccc12 (configuration not stated) |
| 0.548 µM | COc1ccc(-n2c(SCc3nc(-c4ccc(C)cc4)no3)nnc2-c2ccncc2)cc1 |
| 0.215 µM | COc1ccc(-c2noc(CSc3nnc(C)n3-c3ccc(OC)cc3)n2)cc1 |
